Results published in patent publication US5773573A, “HIV peptides” (priority 1994, dated 1998).
Where two headings read alike, the source gives them in different places. Residues, ends and D or L forms follow the SMILES beside them.

Legend:
HIV p24 antigen = experiment: p24Ag Assay on blood samples of HIV infected patient given HEP1; assay type: in vivo; details: patient three
Procedure: (§1) The objective of this study was to determine in an HIV infected patient if the induction of immunological tolerance to HEP1 could reduce immune activation and HIV infection. The design of the first clinical experiment was to orally administer HEP1 to the patient in daily 10 mg doses (the lower end of the preferred dose range). This was then followed approximately three months later with a subcutaneous administration of HEP1 at a higher dose of 140 mg. To assess the therapeutic benefit of HEP1, the following disease progression markers were measured by taking blood samples before, during and after each trial and determining: HIV levels by a p24 antigen assay, HIV infectivity by a cellular TCID assay and immune activation by quantitating levels of various lymphocytes.
p24Ag is a marker of HIV infection as well as a predictor of HIV disease progression. The p24Ag assay measures p24 antigen from the core of HIV and is an immunoassay using murine monoclonal antibody coated onto microwell strips. The assay detects HIV in plasma, serum or tissue culture medium. If present, the antigen binds to the antibody-coated microwells. The bound antigen is recognised by biotinylated antibodies to HIV which react with conjugated strepavidin-horseradish peroxidase. Colour develops from the reaction of the peroxidase with hydrogen peroxidase in the presence of tetramethylbenzidine (TMB) substrate. Specimens which are HIV p24Ag positive can be quantitated by setting up a standard curve using serial dilutions of the Antigen Reagent. The assay is not accurate below 30 picograms per ml.
(§2) The following markers of HIV disease progression were assayed: p24Ag (the concentration of HIV p24 protein in picogram/ml in the blood), TCID (the infectivity of the HIV in the cells of blood sample measured by an in vitro cell culture assay in which a serial dilution of the sample was mixed with activated uninfected PBMC and the level of HIV infection determined by p24Ag assay), total white count (immune activation measured by the number of white cells per mm^3), CD4 (the number of CD4 positive cells per mm^3), CD8 (the number of CD8 positive cells per mm^3), NK (the number of Natural Killer cells per mm^3), Lymphocytes (the number of cells per mm^3), Monocytes (the number of cells per mm^3), and Granulocytes (the number of cells per mm^3). Normalised data was calculated by dividing each data point by the value of its data series on day 1 of the trail and multiplying by 100.

HIV = experiment: Cellular TCID Assay on PBMC of HIV infected patient given HEP1; assay type: in vivo; details: patient three; for TCID, normalised data (day 1 = 100): oral HEP1 10 mg daily day 2-22
Procedure: as §1
Cellular TCID is a technique that measures the relative amount of viral load within cells. Within four hours of a sample being taken from the HIV infected patient, 10^6 viable PBMC from the sample were obtained by centrifugation of the anticoagulated blood over Ficoll-Hypaque lymphocyte separation medium. A serial dilution of the patients cells was set up in a 24 well plate in decreasing amounts (1:1, 1:4, 1:16, 1:64 and 1:256 and a negative control using 0.9 ml special media (RPMI-1640) supplemented with 15% fetal calf serum and 10% interleukin 2. Infected cells were then cocultivated with 10^6 PBMC derived from an uninfected human donor that had been stimulated for 24-48 hours with phytohaemagglutin (PHA) to activate the cells to make them susceptible to infection by HIV. The cocultures were subsequently monitored for the presence of p24 antigen in the supernatant fluid twice weekly for up to 14 days, during this period the plates were spun on days 4,7,11 and 14 and then a 50% medium change was performed. […]
as §2

[1] = patient three
Procedure: Oral administration of HEP1 solution containing 10 mg HEP1 was started on day 2 of the trial and continued until day 22. Further Blood samples were taken for analysis on day 7, day 14, day 21 and day 28 of the trial (7 days after the last dose of HEP1).

[2] = oral HEP1 10 mg daily day 2-22, day 1, before first dose
[3] = oral HEP1 10 mg daily day 2-22, day 7, during treatment
[4] = oral HEP1 10 mg daily day 2-22, day 28, after treatment
[5] = oral administration of HEP1 (FIG. 2)
[6] = orally administered HEP1 10 mg daily
[7] = single subcutaneous HEP1 injection in the abdominal wall

CC(C)[C@H](NC(=O)[C@@H](NC(=O)[C@H](CCC(=O)O)NC(=O)[C@H](CCCNC(=N)N)NC(=O)[C@H](CCCNC(=N)N)NC(=O)[C@H](CCCCN)NC(=O)[C@H](CCCCN)NC(=O)[C@H](CCC(=O)O)NC(=O)[C@@H](N)[C@@H](C)O)[C@@H](C)O)C(=O)N[C@@H](CCC(=O)O)C(=O)N[C@@H](CCCNC(=N)N)C(=O)N[C@@H](CCC(=O)O)C(=O)N[C@@H](CCCCN)C(=O)N[C@@H](CCC(=O)O)C(=O)O [HEP1, NH2 ThrGluLysLysArgArgGluThrValGluArgGluLysGluCOOH] (H-TEKKRRETVEREKE-OH)
p24Ag (HIV p24 antigen; [2]): 71 picogram/ml
p24Ag, normalised data (day 1 = 100) (HIV p24 antigen; [2]): 100
p24Ag (HIV p24 antigen; [3]): 44 picogram/ml
p24Ag, normalised data (day 1 = 100) (HIV p24 antigen; [3]): 62
p24Ag (HIV p24 antigen; [4]): 38 picogram/ml
p24Ag, normalised data (day 1 = 100) (HIV p24 antigen; [4]): 54
HIV virus particles as measured by p24Ag levels, course (HIV p24 antigen; [5]): decline
persistence of the effect on p24Ag and TCID after treatment (HIV p24 antigen; [6]): 7 days
reduction of viral load as measured by p24Ag (HIV p24 antigen; [6]): 46%
p24Ag (HIV p24 antigen; single subcutaneous HEP1 dose on day 1, day-91, end of oral study): 38 picogram/ml
TCID, normalised data (day 1 = 100) (HIV; day 1, before first dose): 100
TCID, normalised data (day 1 = 100) (HIV; day 28, after treatment): 6
HIV infectivity as measured by a TCID assay, course (HIV; [5]): decline
reduction of the infectivity of HIV as measured by TCID (HIV; [6]): 16 X
adverse reactions ([1]; oral HEP1 10 mg daily day 2-22): no adverse reactions
adverse reactions [1, 7]: no other adverse reactions
duration of stinging sensation after injection [1, 7]: approximately 15 minutes
